Assay results from the supplement of paper PMC10307832.

Assays:
Experiment in all cases: relative viability (nuclei count vs DMSO), 5 days (fraction); higher = more cells survive
[1] = compound: CN(C)C[C@@H]1CCn2cc(c3ccccc32)C2=C(C(=O)NC2=O)c2cn(c3ccccc23)CCO1 [Ruboxistaurin] + CC(C)C[C@H](NC(=O)[C@H](Cc1ccccc1)NC(=O)c1cnccn1)B(O)O [Bortezomib] (partner 0.002 µM)
Procedure, shortened: (§1)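 Relative viability is defined as nuclei in treated wells over nuclei in vehicle wells. Duplicate plates were run and medians reported. Lung cancer cell lines in 1536-well plates were dosed by pin tool one day after seeding, with one drug or with a fixed anchor-drug dose plus five library-drug doses (not always all listed) in √10 steps, and nuclei were counted after 5 days.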

[2] = compound: CN(C)C[C@@H]1CCn2cc(c3ccccc32)C2=C(C(=O)NC2=O)c2cn(c3ccccc23)CCO1 [Ruboxistaurin] + C[C@]1(O)C[C@@H](c2nc(-c3ccc4ccc(-c5ccccc5)nc4c3)c3c(N)nccn32)C1 [Linsitinib] (partner 1 µM)
Procedure, shortened: as §1

[3] = compound: CN(C)C[C@@H]1CCn2cc(c3ccccc32)C2=C(C(=O)NC2=O)c2cn(c3ccccc23)CCO1 [Ruboxistaurin] + N=C(N)NC(=N)NCCc1ccccc1 [Phenformin] (partner 250 µM)
Procedure, shortened: as §1

Ruboxistaurin + AZD7762 = compound: CN(C)C[C@@H]1CCn2cc(c3ccccc32)C2=C(C(=O)NC2=O)c2cn(c3ccccc23)CCO1 [Ruboxistaurin] + NC(=O)Nc1cc(-c2cccc(F)c2)sc1C(=O)N[C@H]1CCCNC1 [AZD7762] (partner 0.2 µM)
Procedure, shortened: as §1

[4] = compound: CN(C)C[C@@H]1CCn2cc(c3ccccc32)C2=C(C(=O)NC2=O)c2cn(c3ccccc23)CCO1 [Ruboxistaurin] + Nc1ncn([C@H]2C[C@H](O)[C@@H](CO)O2)c(=O)n1 [Decitabine] (partner 2 µM)
Procedure, shortened: as §1

Row | Cell Line | relative viability ([1]; first compound 0.08 µM) | relative viability ([1]; first compound 0.8 µM) | relative viability ([1]; first compound 2.53 µM) | relative viability ([1]; first compound 8 µM) | relative viability ([2]; first compound 0.08 µM) | relative viability ([2]; first compound 0.8 µM) | relative viability ([2]; first compound 2.53 µM) | relative viability ([2]; first compound 8 µM) | relative viability ([3]; first compound 0.08 µM) | relative viability ([3]; first compound 0.8 µM) | relative viability ([3]; first compound 2.53 µM) | relative viability ([3]; first compound 8 µM) | relative viability (Ruboxistaurin + AZD7762; first compound 0.08 µM) | relative viability (Ruboxistaurin + AZD7762; first compound 0.8 µM) | relative viability (Ruboxistaurin + AZD7762; first compound 2.53 µM) | relative viability (Ruboxistaurin + AZD7762; first compound 8 µM) | relative viability ([4]; first compound 0.08 µM) | relative viability ([4]; first compound 0.8 µM) | relative viability ([4]; first compound 2.53 µM) | relative viability ([4]; first compound 8 µM)
1 | HOP-62 | 0.736 | 0.536 | 0.734 | 0.642 | 0.972 | 0.963 | 0.869 | 1 | 0.681 | 0.65 | 0.704 | 0.839 | 0.779 | 0.694 | 0.875 | 0.894 | 0.21 | 0.242 | 0.251 | 0.268
2 | LC-2-ad | 1.17 | 0.929 | 1.15 | 1.06 | 0.931 | 0.862 | 0.912 | 0.742 | 0.621 | 0.574 | 0.615 | 0.572 | 0.882 | 0.807 | 0.862 | 0.813 | 0.71 | 0.887 | 0.753 | 0.847
3 | LCLC-97TM1 | 0.845 | 0.487 | 0.58 | 0.685 | 0.169 |  | 0.166 | 0.151 | 0.466 | 0.383 | 0.475 | 0.466 | 0.268 | 0.297 | 0.442 | 0.416 | 0.179 | 0.191 | 0.278 | 0.231
4 | LCLC-103H | 1.19 | 1.12 | 0.968 | 1.01 | 1.13 | 0.834 | 0.883 | 1.15 | 0.336 | 0.285 | 0.336 | 0.321 | 0.869 | 0.744 | 0.788 | 0.775 | 0.805 | 0.648 | 0.726 | 0.699
5 | LOU-NH91 | 0.475 | 0.473 | 0.443 | 0.457 | 1.11 | 0.902 | 0.994 | 0.883 | 0.827 | 0.666 | 0.722 | 0.751 | 0.823 | 0.74 | 0.792 | 0.726 | 0.909 | 0.772 | 0.855 | 0.775
6 | LU99A | 1.19 | 1.06 | 1.11 | 0.968 | 0.614 | 0.455 | 0.463 | 0.33 | 0.759 | 0.625 | 0.872 | 0.787 | 0.385 | 0.312 | 0.349 | 0.289 | 0.861 | 0.762 | 1.01 | 0.773
7 | LXF-289 | 1.03 | 0.941 | 0.976 | 1.06 | 0.925 | 0.951 | 0.966 | 1.05 | 0.514 | 0.509 | 0.488 | 0.594 | 1.12 | 1.03 | 1.07 | 1.17 | 0.377 | 0.338 | 0.38 | 0.418
8 | NCI-H23 | 1.2 | 0.871 | 1.01 | 0.929 | 0.627 | 0.402 | 0.544 | 0.484 | 0.766 | 0.781 | 0.819 | 0.852 | 0.234 | 0.262 | 0.185 | 0.279 | 0.279 | 0.259 | 0.364 | 0.283
9 | NCI-H322M | 1.2 | 1.16 | 1.16 | 1.28 | 0.969 | 0.826 | 0.861 | 0.779 | 0.838 | 0.67 | 0.656 | 0.455 | 0.56 | 0.564 | 0.573 | 0.475 | 0.746 | 0.656 | 0.6 | 0.619
10 | NCI-H441 | 0.636 | 0.296 | 0.431 | 0.448 | 0.633 | 0.508 | 0.495 | 0.458 | 0.942 | 0.886 | 0.867 | 0.862 | 1.08 | 1.1 | 1.15 | 1.34 | 0.278 | 0.309 | 0.277 | 0.269
11 | NCI-H460 | 1.1 | 1.03 | 0.916 | 0.824 | 0.919 | 0.6 | 0.855 | 0.349 | 0.535 | 0.497 | 0.533 | 0.485 | 0.652 | 0.669 | 0.751 | 0.574 | 0.49 | 0.448 | 0.533 | 0.595
12 | NCI-H596 | 0.978 | 0.443 | 0.932 | 1 | 1.14 | 1.01 | 1.08 | 0.857 | 0.844 | 0.77 | 0.841 | 0.722 | 1.14 | 0.942 | 0.972 | 0.812 | 0.978 | 0.892 | 0.987 | 0.973
13 | NCI-H647 | 1.21 | 0.817 | 0.869 | 1.3 | 1.2 | 0.923 | 1.24 | 1.02 | 0.656 | 0.483 | 0.599 | 0.409 | 0.529 | 0.422 | 0.452 | 0.371 | 0.442 | 0.33 | 0.373 | 0.547
14 | NCI-H650 | 0.816 | 0.698 | 0.927 | 0.915 | 0.94 | 0.799 | 1.06 | 0.801 | 0.51 | 0.452 | 0.488 | 0.464 | 1.09 | 1.06 | 1.06 | 0.953 | 0.312 | 0.343 | 0.296 | 0.34
15 | NCI-H727 | 0.974 | 0.85 | 0.986 | 0.69 | 0.312 | 0.288 | 0.296 | 0.267 | 0.565 |  | 0.401 | 0.474 | 0.657 | 0.607 | 0.487 | 0.61 | 0.862 | 0.839 | 0.976 | 0.639
